Laboratory results: patent publication US8426420B2, “Heterocyclic pyrazole-carboxamidesas P2Y12 antagonists” (Sanofi, priority 2007, dated 2013)

What follows are compounds tested on human platelet rich plasma (assay: Inhibition of human platelet aggregation, 96-well assay). Details: ADP-induced aggregation, human platelet rich plasma, 96-well plates, AUC of absorbance over 20 minutes.
Assay type: cell-based
Method: Inhibition of Human Platelet Aggregation
Alternatively to a binding assay which measures a compound's ability to bind to the P2Y12 receptor, the effect on cellular function was also determined. This ability of the compound was evaluated in two platelet aggregation assays: in 96-well plates and with the “Born”-method using single cuvettes.
Whole blood was collected from healthy volunteers using 20 ml syringes containing 2 ml of ACD-A Aqua-Citrat-Dextrose-A, Fresenius). The anticoagulated whole blood was transferred into 15 ml polypropylene conical tubes (10 ml per tube). The tubes were centrifuged for 15 minutes at 150×g at RT without using the centrifuge brake. This procedure leads to a pellet of cellular components and a supernatant of platelet rich plasma (PRP). The PRP layer was collected from each tube and pooled for each donor. To avoid carry over of cellular components following centrifugation, approximately 5 ml of PRP was left in the tube. The platelet concentration was determined using a Coulter Counter.
The 15 ml tubes containing the pellet of cellular components were centrifuged again for 10 minutes at 1940×g. This pelleted out most particulate blood constituents remaining, leaving a layer of Platelet Poor Plasma (PPP). The PPP was collected for each donor. The PRP layer, previously set aside, was diluted with PPP to a final concentration of approximately 3×E8 platelets/ml with the PPP.
The human platelet aggregation assay is performed in 96-well plates using a microtiter plate reader (SpectraMax Plus 384 with SoftMax Pro software from Molecular Devices). In the plate 15 μl of test compound at 10× final concentration in NaCl is mixed with 120 μl fresh PRP and incubated for 5 minutes. Following that incubation period, 15 μl of 40 μM ADP is added to the reaction mix. This addition of ADP is sufficient to induce aggregation in the absence of an inhibitor. The plates are then transferred to the microplate reader and aggregation is measured over 20 minutes. The instrument settings include:
Absorbance at 650 nm, run time 20 minutes with readings in 1-minute intervals and 50 seconds shaking between readings all performed at 37° C.

Compound	IC50 [nM]
4-[2-({5-[2-((S)-2-Cyclobutylcarbamoyl-pyrrolidin-1-yl)-2-oxo-ethoxy]-1-phenyl-1H-pyrazole-3-carbonyl}-amino)-acetyl]-piperazine-1-carboxylic acid 2-methoxy-ethyl ester [Example 254]	750
CCOC(=O)N1CCN(C(=O)[C@H](CCC(=O)O)NC(=O)c2cc(OCC(=O)N3CCC[C@H]3C(=O)NC)n(-c3ccccc3)n2)CC1 [Example 7, 4-{(S)-4-Carboxy-2-[(5-{2-[(S)-2-(2-methylcarbamoyl)-pyrrolidin-1-yl]-2-oxo-ethoxy}-1-phenyl-1H-pyrazole-3-carbonyl)-amino]-butyryl}-piperazine-1-carboxylic acid ethyl ester]	1460

Same assay, conditions: Homo sapiens, Platelet, 20 min

Compound	IC50 [nM]
CCNC(=O)[C@@H]1CCCN1C(=O)COc1cc(C(=O)N[C@@H](CCC(=O)O)C(=O)N2CCN(C(=O)OCC)CC2)nn1-c1ccccc1 [Example 8, 4-{(S)-4-Carboxy-2-[(5-{2-[(S)-2-ethylcarbamoyl-pyrrolidin-1-yl]-2-oxo-ethoxy}-1-phenyl-1H-pyrazole-3-carbonyl)-amino]-butyryl}-piperazine-1-carboxylic acid ethyl ester]	470
CCOC(=O)N1CCN(C(=O)[C@H](CCC(=O)O)NC(=O)c2cc(OCC(=O)N3CCC[C@H]3C(=O)N3CCCC3)n(-c3ccccc3)n2)CC1 [Example 17, 4-{(S)-4-Carboxy-2-[(5-{2-oxo-2-[(S)-2-(pyrrolidine-1-carbonyl)-pyrrolidin-1-yl]-ethoxy}-1-phenyl-1H-pyrazole-3-carbonyl)-amino]-butyryl}-piperazine-1-carboxylic acid ethyl ester]	600
CCOC(=O)N1CCN(C(=O)[C@H](CCC(=O)O)NC(=O)c2cc(OCC(=O)N3CCC[C@H]3C(=O)N3CCC(F)(F)CC3)n(-c3ccccc3)n2)CC1 [Example 19, 4-{(S)-4-Carboxy-2-[(5-{2-[(S)-2-(4,4-difluoro-piperidine-1-carbonyl)-pyrrolidin-1-yl]-2-oxo-ethoxy}-1-phenyl-1H-pyrazole-3-carbonyl)-amino]-butyryl}-piperazine-1-carboxylic acid ethyl ester]	210
CCOC(=O)N1CCN(C(=O)[C@H](CCC(=O)O)NC(=O)c2cc(OCC(=O)N3CCC[C@H]3C(=O)N(C)C3CCC3)n(-c3ccccc3)n2)CC1 [Example 22, 4-{(S)-4-Carboxy-2-[(5-{2-[(S)-2-(cyclobutyl-methyl-carbamoyl)-pyrrolidin-1-yl]-2-oxo-ethoxy}-1-phenyl-1H-pyrazole-3-carbonyl)-amino]-butyryl}-piperazine-1-carboxylic acid ethyl ester]	220
CCOC(=O)N1CCN(C(=O)[C@H](CCC(=O)O)NC(=O)c2cc(OCC(=O)N3CCN(C(C)=O)CC3)n(-c3ccccc3)n2)CC1 [Example 27, 4-[(S)-2-({5-[2-(4-Acetyl-piperazin-1-yl)-2-oxo-ethoxy]-1-phenyl-1H-pyrazole-3-carbonyl}-amino)-4-carboxy-butyryl]-piperazine-1-carboxylic acid ethyl ester]	760
CCOC(=O)N1CCN(C(=O)[C@H](CCC(=O)O)NC(=O)c2cc(OCC(=O)N3CC[C@H]3C(=O)NC3CC3)n(-c3ccccc3)n2)CC1 [Example 40, 4-[(S)-4-Carboxy-2-({5-[2-((S)-2-cyclopropylcarbamoyl-azetidin-1-yl)-2-oxo-ethoxy]-1-phenyl-1H-pyrazole-3-carbonyl}-amino)-butyryl]-piperazine-1-carboxylic acid ethyl ester]	860
CCOC(=O)N1CCN(C(=O)[C@H](CC(=O)O)NC(=O)c2cc(OCC(=O)N3CCC[C@H]3C(=O)NC3CC3)n(-c3ccccc3)n2)CC1 [Example 56, 4-[(S)-3-Carboxy-2-({5-[2-((S)-2-cyclopropylcarbamoyl-pyrrolidin-1-yl)-2-oxo-ethoxy]-1-phenyl-1H-pyrazole-3-carbonyl}-amino)-propionyl]-piperazine-1-carboxylic acid ethyl ester]	60
CCOC(=O)N1CCN(C(=O)[C@H](CC(=O)O)NC(=O)c2cc(OCC(=O)N3CCC[C@H]3C(=O)NCCF)n(-c3ccccc3)n2)CC1 [Example 59, 4-{(S)-3-Carboxy-2-[(5-{2-[(S)-2-(2-fluoro-ethylcarbamoyl)-pyrrolidin-1-yl]-2-oxo-ethoxy}-1-phenyl-1H-pyrazole-3-carbonyl)-amino]-propionyl}-piperazine-1-carboxylic acid ethyl ester]	630
CCCCOC(=O)NC1CCN(C(=O)[C@H](CCC(=O)O)NC(=O)c2cc(OCC(=O)N3CCC[C@H]3C(=O)NC3CCC3)n(-c3ccccc3)n2)C1 (stereo partly drawn) [Example 108, (S)-5-(3-Butoxycarbonylamino-pyrrolidin-1-yl)-4-({5-[2-((S)-2-cyclobutylcarbamoyl-pyrrolidin-1-yl)-2-oxo-ethoxy]-1-phenyl-1H-pyrazole-3-carbonyl}-amino)-5-oxo-pentanoic acid]	1880

Next, values leading:

IC50 [nM]	Compound
190	CCOC(=O)N1CCN(C(=O)[C@H](CCC(=O)O)NC(=O)c2cc(O[C@H](C)C(=O)N3CCC[C@H]3C(=O)N3CCCC3)n(-c3ccccc3)n2)CC1 [Example 64, 4-{(S)-4-Carboxy-2-[(5-{(R)-1-methyl-2-oxo-2-[(S)-2-(pyrrolidine-1-carbonyl)-pyrrolidin-1-yl]-ethoxy}-1-phenyl-1H-pyrazole-3-carbonyl)-amino]-butyryl}-piperazine-1-carboxylic acid ethyl ester]
330	CCOC(=O)N1CCN(C(=O)[C@H](CCC(=O)O)NC(=O)c2cc(O[C@@H](C)C(=O)N3CCC[C@H]3C(=O)NC3CC3)n(-c3ccccc3)n2)CC1 [Example 66, 4-[(S)-4-Carboxy-2-({5-[(S)-2-((S)-2-cyclopropylcarbamoyl-pyrrolidin-1-yl)-1-methyl-2-oxo-ethoxy]-1-phenyl-1H-pyrazole-3-carbonyl}-amino)-butyryl]-piperazine-1-carboxylic acid ethyl ester]
70	CCOC(=O)N1CCN(C(=O)[C@H](CCC(=O)O)NC(=O)c2cc(O[C@@H](C)C(=O)N3CCC[C@H]3C(=O)NCC3CC3)n(-c3ccccc3)n2)CC1 [Example 68, 4-[(S)-4-Carboxy-2-({5-[(S)-2-((S)-2-cyclopropylmethylcarbamoyl-pyrrolidin-1-yl)-1-methyl-2-oxo-ethoxy]-1-phenyl-1H-pyrazole-3-carbonyl}-amino)-butyryl]-piperazine-1-carboxylic acid ethyl ester]
260	CCOC(=O)N1CCN(C(=O)[C@H](CCC(=O)O)NC(=O)c2cc(O[C@@H](C)C(=O)N3CCC[C@H]3C(=O)NCC(F)(F)F)n(-c3ccccc3)n2)CC1 [Example 70, 4-[(S)-4-Carboxy-2-({5-[(S)-2-((S)-2-(2,2,2-trifluoroethylcarbamoyl)-pyrrolidin-1-yl)-1-methyl-2-oxo-ethoxy]-1-phenyl-1H-pyrazole-3-carbonyl}-amino)-butyryl]-piperazine-1-carboxylic acid ethyl ester]
1810	CCOC(=O)N1CCN(C(=O)[C@H](CCNC(=O)C(F)(F)F)NC(=O)c2cc(OCC(=O)N3CCC[C@H]3C(=O)NC3CCC3)n(-c3ccccc3)n2)CC1 [Example 98, 4-[(S)-2-({5-[2-((S)-2-Cyclobutylcarbamoyl-pyrrolidin-1-yl)-2-oxo-ethoxy]-1-phenyl-1H-pyrazole-3-carbonyl}-amino)-4-(2,2,2-trifluoro-acetylamino)-butyryl]-piperazine-1-carboxylic acid ethyl ester]
1230	O=C(O)CC[C@H](NC(=O)c1cc(OCC(=O)N2CCC[C@H]2C(=O)NC2CCC2)n(-c2ccccc2)n1)C(=O)N1CCN(C(=O)c2ccccc2)CC1 [Example 104, (S)-5-(4-Benzoyl-piperazin-1-yl)-4-({5-[2-((S)-2-cyclobutylcarbamoyl-pyrrolidin-1-yl)-2-oxo-ethoxy]-1-phenyl-1H-pyrazole-3-carbonyl}-amino)-5-oxo-pentanoic acid]
430	CCOC(=O)N1CCN(C(=O)[C@H](CCC(=O)O)NC(=O)c2cc(OCC(=O)N3CCC[C@H]3C(=O)NC3CCC3)n(-c3ccccc3)n2)[C@@H](C)C1 [Example 153, (S)-4-[(S)-4-Carboxy-2-({5-[2-((S)-2-cyclobutylcarbamoyl-pyrrolidin-1-yl)-2-oxo-ethoxy]-1-phenyl-1H-pyrazole-3-carbonyl}-amino)-butyryl]-3-methyl-piperazine-1-carboxylic acid ethyl ester]
1080	O=C(O)CC[C@H](NC(=O)c1cc(OCC(=O)N2CCC[C@H]2C(=O)NC2CCC2)n(-c2ccccc2)n1)C(=O)N1CCN(C(=O)Oc2ccccc2)CC1 [Example 156, 4-[(S)-4-Carboxy-2-({5-[2-((S)-2-cyclobutylcarbamoyl-pyrrolidin-1-yl)-2-oxo-ethoxy]-1-phenyl-1H-pyrazole-3-carbonyl}-amino)-butyryl]-piperazine-1-carboxylic acid phenyl ester]
